# Source: patent US20240391964A1, “COMPOSITIONS AND METHODS FOR THE TREATMENT OF CANCER” (The University of Western Australia, priority 2020, published 2024)
# pIC50: −log10 of the molar value.
# Key:
# [1] = test system: PD-L1 in T11, SUM159 and SKBR3 cells; assay: qRT-PCR of PD-L1 expression; assay type: cell-based; details: 24 h at IC50; p<0.005 T11, p<0.05 SUM159, p<0.005 SKBR3
# Experimental: The level of PD-L1 expression was also measured in T11, SUM159 and SKBR3 treated with active RGD1-melittin and mutant RGD1-melittin peptides, or vehicle treated only, using qRT-PCR.
# Cells were seeded overnight at a density of 3×105 in a p6-well plate. […] Cells were washed once with PBS before RNA was extracted from the cells using QIAzol Lysis. Reagent (QIAGEN) according to manufacturer's instructions. 500 ng of purified total RNA was used as the template for cDNA synthesis using the High Capacity cDNA Reverse Transcription Kit (Applied Biosystems). Relative quantification of PD-L1 transcript expression was obtained by quantitative real-time PCR (qRT-PCR) using fluorescent TaqMan probes (Applied Biosystems) and run on the ViiA 7TM Real-Time PCR machine (Applied Biosystems). Data were analysed by QuantStudio Real-Time PCR Software (Applied Biosystems) and results were expressed as fold change compared to untreated cells, respectively, after normalization against the GAPDH mRNA levels.
# [2] = test system: T11, OVCAR3 and COV362 cells; assay: Cell viability, RGD1-melittin with cisplatin; assay type: cell-based; details: 24 h, non-constant ratio
# Experimental: Cell viability assays of T11, OVCAR3, and COV362 cells treated with RGD1-melittin alone and in combination with cisplatin were performed. Cells were seeded overnight at a density of 5000 cells/p96-well plate and treated with active RGD1-melittin alone or combined with […] and administered at concentrations indicated in a non-constant ratio in the respective cell lines for 24 h. Cell viability was assessed using the CellTiter-Glo® assay.
# (§1) The combination effect for different fractions of cells impacted in each combination were calculated using the Chou and Talalay algorithm included in the freely available CompuSyn software. Combination index (CI)<1 means synergism, CI=1 means additive and CI>1 means antagonism.
# OVCAR3 cells = assay type: cell-based
# Experimental: (§2) The OVCAR3 and COV362 ovarian cancer cell lines were treated with active RGD1-melittin and mutant RGD1-melittin (DEDE-RGD1-melittin). The COV362 cells were cultured in DMEM low glucose medium supplemented with 10% FBS. The OVCAR3 cells were grown in RPMI medium supplemented with 20% FBS. Cells were seeded overnight at a density of 5000 cells/p96-well plate and treated with active RGD1-melittin and mutant RGD1-melittin (RGD1-DEDE melittin), for 24 h at concentrations up to 20 µM. After treatments, cell viability was assessed using the CellTiter-Glo® assay according to the manufacturer's protocol (Promega; NSW, Australia). Luminescence signals were measured using the EnVision Multilabel Plate Reader (PerkinsElmer Inc.; Waltham, MA, USA). IC50s were calculated and transformed 95% confidence intervals provided by GraphPad Prism 6 software analysis (GraphPad Software Inc., San Diego, CA, USA).
# COV362 cells = assay type: cell-based
# Experimental: as §2
# SUM159 cells [3] = details: 24 hours, mean±SEM
# Experimental: To assess anticancer efficacy and selectivity, both venom from European honeybees collected in Perth, Australia and melittin peptide were evaluated in dose-response assays in a panel of cell lines representative of the intrinsic breast cancer subtypes and in non-transformed cells.
# T11 cells [4] = assay: Cell viability assay of melittin variants, T11; assay type: cell-based, murine; details: t-test p=0.652
# Experimental: FIG. 5 presents the lack of anticancer activity of DEDE-melittin, and the breast cancer cell selectivity of the melittin fusion peptide RGD1-melittin. FIG. 5A presents cell viability assays of TNBC (SUM159) and HER2-enriched (SKBR3) cells treated with DEDE-melittin for 24 hours. FIG. 5B presents cell viability assays of T11 cells treated with melittin, RGD1-melittin, SV40-melittin, TAT-melittin and DEDE-melittin. FIG. 5C presents cell viability assays of human dermal fibroblasts (HDFa) and SUM159 treated with melittin (top) and RGD1-melittin (bottom) for 24 hours.
# To assess the functional role of the positive (K21RKR24) sequence (SEQ ID NO: 4) in the C-terminus of melittin, a negatively charged melittin peptide (D21EDE24-melittin; SEQ ID NO: 6) was designed. These negative residues were predicted to disrupt the binding of melittin with the plasma membrane. […] However, the potency of melittin and SV40-melittin were greater than TAT-melittin, which could be due to the larger size of TAT.
# T11 cells [5] = assay: Cell viability, combination with omomyc; assay type: cell-based, murine; details: T11, 24 hours
# Experimental: FIG. 16 presents the results of cell viability assays of T11 breast cancer cells treated with melittin or RGD1-melittin alone and in combination with omomyc for 24 hours. Representative plots of the combination treatments are presented as mean±SEM.
# The murine p53 TNBC cell line T11 was treated with omomyc in combination with either melittin or RGD1-melittin, and cell viability assays were conducted to determine the combination effect between the treatments (FIG. 16).
# SUM159 cells [6] = assay: Immunofluorescence subcellular localization with anti-melittin antibody; assay type: cell-based, human; details: 30 minutes, IC50 concentrations
# SUM159 cells [7] = assay: Cleaved caspase-3 immunoblot; assay type: cell-based, human; details: 24 hours
# [8] = test system: Ki-67 and PD-L1 in T11, SUM159 and SKBR3 cells; assay: Immunofluorescence of Ki-67 and PD-L1; assay type: cell-based; details: 24 h at IC50 concentrations, all three cell lines
# Experimental: The expression of PD-L1 of TNBC cells (T11 and SUM159) and HER2-enriched breast cancer cells (SKBR3) treated with active RGD1-melittin and mutant RGD1-melittin (DEDE RGD1-melittin) was measured using immunofluorescence.
# Cells were seeded overnight on coverslips at a density of 3×105 in a p24-well plate coated with poly-L-lysine (Sigma-Aldrich) for 20 min and then washed twice with purified water. […] The cells were washed three times with PBS and then incubated with a goat α-mouse secondary Alexa Fluor 488-conjugated antibody (Thermo Fisher Scientific #A11001, 1:500) and Hoechst-33258 (1:5000) in PBS for 1 h at room temperature. After three more washes of PBS, the coverslip containing cells were mounted onto glass […] with SlowFade Diamond Antifade Mountant (Thermo Fisher Scientific). Slides were imaged using the confocal fluorescence Nikon Ti inverted microscope. Images were taken at 40× magnification and processed using ImageJ.
# T11 cells [9] = assay: Cell viability, combination with docetaxel; assay type: cell-based, murine; details: T11, 48 hours
# Experimental: FIG. 15 presents the results of cell viability assays of T11 breast cancer cells treated with melittin or RGD1-melittin alone and in combination with docetaxel for 48 hours. Representative plots of the combination treatments are presented as mean±SEM.
# The murine p53 TNBC cell line T11 was treated with docetaxel in combination with either melittin or RGD1-melittin, and cell viability assays were conducted to determine the combination effect between the treatments (FIG. 15).
# [10] = test system: T11, OVCAR3, SUM159 and SKBR3 cells; assay: Cell viability, RGD1-melittin with docetaxel; assay type: cell-based; details: 24 h, non-constant ratio
# Experimental: Cell viability assays of T11, OVCAR3, SUM159 and SKBR3 cells treated with RGD1-melittin alone and in combination with docetaxel were performed. Cells were seeded overnight at a density of 5000 cells/p96-well plate and treated with active RGD1-melittin alone or combined with docetaxel and administered at concentrations indicated in a non-constant ratio in the respective cell lines for 24 h. Cell viability was assessed using the CellTiter-Glo® assay.
# as §1
smiles,measurement,setting,value
CC[C@H](C)[C@H](NC(=O)CNC(=O)[C@H](CCCCN)NC(=O)[C@H](CCCCN)NC(=O)[C@H](CC(C)C)NC(=O)[C@H](CCCNC(=N)N)NC(=O)CNC(=O)[C@H](CC(C)C)NC(=O)[C@H](CC(=O)O)NC(=O)CNC(=O)[C@H](CCCNC(=N)N)NC(=O)CNC(=O)[C@@H](N)Cc1c[nH]cn1)C(=O)NCC(=O)N[C@@H](C)C(=O)N[C@H](C(=O)N[C@@H](CC(C)C)C(=O)N[C@@H](CCCCN)C(=O)N[C@H](C(=O)N[C@@H](CC(C)C)C(=O)N[C@H](C(=O)N[C@H](C(=O)NCC(=O)N[C@@H](CC(C)C)C(=O)N1CCC[C@H]1C(=O)N[C@@H](C)C(=O)N[C@@H](CC(C)C)C(=O)N[C@H](C(=O)N[C@@H](CO)C(=O)N[C@@H](Cc1c[nH]c2ccccc12)C(=O)N[C@H](C(=O)N[C@@H](CCCCN)C(=O)N[C@@H](CCCNC(=N)N)C(=O)N[C@@H](CCCCN)C(=O)N[C@@H](CCCNC(=N)N)C(=O)N[C@@H](CCC(N)=O)C(=O)N[C@@H](CCC(N)=O)C(=O)O)[C@@H](C)CC)[C@@H](C)CC)[C@@H](C)O)[C@@H](C)O)C(C)C)C(C)C [RGD1-melittin],level of PD-L1 (qRT-PCR),[1],significantly reduce
same,"sensitization to cisplatin (cell viability, combination index)",[2],significantly sensitized all three tested cell lines to cisplatin
same,fold lower IC50 than active melittin,OVCAR3 cells; OVCAR3,approximately 6 fold
same,pIC50,"OVCAR3 cells; OVCAR3, 24 h",5.47
same,fold lower IC50 than active melittin,COV362 cells; COV362,approximately 3.7 fold
same,pIC50,"COV362 cells; COV362, 24 h",5.68
same,ratio of the IC50s of HDFa/SUM159,SUM159 cells [3],2.73±0.14
same,IC50 compared to parental melittin,T11 cells [4],not significantly different compared to parental melittin
same,combination effect with omomyc on cell viability,T11 cells [5],beneficial effect when combined with omomyc
same,subcellular localization / anti-melittin staining,SUM159 cells [6],distinctively targeted to the plasma membrane alone
same,induction of apoptosis (cleaved caspase-3),SUM159 cells [7],confirmed the anticancer activity
same,PD-L1 expression (immunofluorescence),[8],reduced
same,cell proliferation (Ki-67),[8],reduced
same,combination effect with docetaxel on cell viability,T11 cells [9],beneficial effect when combined with docetaxel
same,"sensitization to docetaxel (cell viability, combination index)",[10],significantly sensitized all four tested cell lines to docetaxel
